Source: ChEMBL document CHEMBL1201862, “PubChem BioAssay data set” (2004)
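Grown in 96-well plates, cells were treated for 48 hours with each compound at five concentrations. Insufficient inhibition: endpoint recorded as highest concentration tested. GI50 = concentration required for 50% inhibition of growth.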 Calls of active or inactive are those of the source. Cut-off read from the data, not from the text of the source: active = GI50 up to about 1.1 µM and inactive = higher.

What was measured:
Experiment in all cases: growth of human tumour cells (NCI), 48 h
[1] = test system: DMS-273
[2] = test system: SNB-75
[3] = test system: SNB-19
[4] = test system: HOP-18
[5] = test system: SK-MEL-5
[6] = test system: CCRF-CEM
[7] = test system: NCI-H226
[8] = test system: SW-620
[9] = test system: OVCAR-3
[10] = test system: DMS-114
[11] = test system: HT-29
[12] = test system: OVCAR-8
[13] = test system: OVCAR-4
[14] = test system: SF-539
[15] = test system: DLD-1
[16] = test system: SF-295
[17] = test system: NCI/ADR-RES
[18] = test system: SF-268
[19] = test system: MOLT-4
[20] = test system: UACC-62
[21] = test system: OVCAR-5
[22] = test system: K562
[23] = test system: A549
[24] = test system: NCI-H23
[25] = test system: SK-MEL-28
[26] = test system: RPMI-8226
[27] = test system: COLO 205
[28] = test system: HOP-92
[29] = test system: XF498
[30] = test system: Malme-3M
[31] = test system: HL-60
[32] = test system: UO-31
[33] = test system: LOX IMVI
[34] = test system: A498
[35] = test system: SK-MEL-2
[36] = test system: SN12C
[37] = test system: KM-20L2
[38] = test system: UACC-257
[39] = test system: SNB-78
[40] = test system: HCT-15
[41] = test system: HCT-116
[42] = test system: HCC 2998
[43] = test system: HOP-62
[44] = test system: MCF7
[45] = test system: M19-MEL
[46] = test system: NCI-H460
[47] = test system: IGROV-1
[48] = test system: SK-OV-3
[49] = test system: KM12
[50] = test system: EKVX
[51] = test system: NCI-H522
[52] = test system: U-251
[53] = test system: CAKI-1
[54] = test system: RXF 393
[55] = test system: ACHN
[56] = test system: LXFL 529
[57] = test system: 786-0
[58] = test system: M14
[59] = test system: SR
[60] = test system: TK-10

## Nc1ncnc2c1nnn2C1OC(CO)C(O)C1O (centres undefined)
[1]
  GI50: 2.62 µM (inactive)
[2]
  GI50: 9.02 µM (inactive)
[3]
  GI50: 5.66 µM (inactive)
[4]
  GI50: 2.69 µM (inactive)
[5]
  GI50: 4 µM (inactive)
[6]
  GI50: 3.23 µM (inactive)
[7]
  GI50: 3.71 µM (inactive)
[8]
  GI50: 2.19 µM (inactive)
[9]
  GI50: 5.5 µM (inactive)
[10]
  GI50: 3.64 µM (inactive)
[11]
  GI50: 6.78 µM (inactive)
[12]
  GI50: 2.87 µM (inactive)
[13]
  GI50: 8.85 µM (inactive)
[14]
  GI50: 9.14 µM (inactive)
[15]
  GI50: 1.36 µM (inactive)
[16]
  GI50: 30.1 µM (inactive)
[17]
  GI50: 8.97 µM (inactive)
[18]
  GI50: 6.3 µM (inactive)
[19]
  GI50: 5.41 µM (inactive)
[20]
  GI50: 5.7 µM (inactive)
[21]
  GI50: 4.37 µM (inactive)
[22]
  GI50: 1.61 µM (inactive)
[23]
  GI50: 3.65 µM (inactive)
[24]
  GI50: 7.82 µM (inactive)
[25]
  GI50: 12.4 µM (inactive)
[26]
  GI50: 1.88 µM (inactive)
[27]
  GI50: 3.05 µM (inactive)
[28]
  GI50: 7.14 µM (inactive)
[29]
  GI50: 6.98 µM (inactive)
[30]
  GI50: 3.58 µM (inactive)
[31]
  GI50: 0.405 µM (active)
[32]
  GI50: 2.07 µM (inactive)
[33]
  GI50: 1.8 µM (inactive)
[34]
  GI50: 3.94 µM (inactive)
[35]
  GI50: 1.3 µM (inactive)
[36]
  GI50: 1.17 µM (inactive)
[37]
  GI50: 4.2 µM (inactive)
[38]
  GI50: 8.93 µM (inactive)
[39]
  GI50: 37.6 µM (inactive)
[40]
  GI50: 2.54 µM
[41]
  GI50: 1.9 µM (inactive)
[42]
  GI50: 1.83 µM (inactive)
[43]
  GI50: 6.05 µM (inactive)
[44]
  GI50: 2.48 µM (inactive)
[45]
  GI50: 8.57 µM (inactive)
[46]
  GI50: 2.13 µM (inactive)
[47]
  GI50: 1.19 µM (inactive)
[48]
  GI50: 0.822 µM (active)
[49]
  GI50: 4.21 µM (inactive)
[50]
  GI50: 7.66 µM (inactive)
[51]
  GI50: 1.87 µM (inactive)
[52]
  GI50: 7.28 µM (inactive)
[53]
  GI50: 4.5 µM (inactive)

## CC[C@]12C=CCN3CC[C@@]4(c5ccc(OC)cc5N(C)[C@H]4[C@@](O)(C(=O)OC)[C@@H]1OC(C)=O)[C@@H]32
[1]
  GI50: > 140 µM (inactive)
[2]
  GI50: 51.3 µM (inactive)
[3]
  GI50: > 200 µM (inactive)
[4]
  GI50: > 200 µM (inactive)
[5]
  GI50: 99.5 µM (inactive)
[6]
  GI50: 132 µM (inactive)
[7]
  GI50: 132 µM (inactive)
[8]
  GI50: > 200 µM (inactive)
[54]
  GI50: 96.8 µM (inactive)
[9]
  GI50: 102 µM (inactive)
[10]
  GI50: 140 µM (inactive)
[11]
  GI50: > 200 µM (inactive)
[12]
  GI50: 19.5 µM (inactive)
[13]
  GI50: 35.4 µM (inactive)
[14]
  GI50: > 200 µM (inactive)
[15]
  GI50: > 200 µM (inactive)
[16]
  GI50: 152 µM (inactive)
[17]
  GI50: 156 µM (inactive)
[18]
  GI50: 138 µM (inactive)
[19]
  GI50: 81.3 µM (inactive)
[20]
  GI50: 143 µM (inactive)
[21]
  GI50: > 200 µM (inactive)
[22]
  GI50: 131 µM (inactive)
[23]
  GI50: 162 µM (inactive)
[24]
  GI50: > 171 µM (inactive)
[25]
  GI50: > 200 µM (inactive)
[26]
  GI50: 93.8 µM (inactive)
[27]
  GI50: > 185 µM (inactive)
[28]
  GI50: 46.2 µM (inactive)
[29]
  GI50: > 172 µM (inactive)
[30]
  GI50: > 200 µM (inactive)
[31]
  GI50: 89.3 µM (inactive)
[32]
  GI50: 59 µM (inactive)
[33]
  GI50: > 200 µM (inactive)
[34]
  GI50: 102 µM (inactive)
[35]
  GI50: 182 µM (inactive)
[36]
  GI50: > 183 µM (inactive)
[37]
  GI50: > 101 µM (inactive)
[38]
  GI50: 172 µM (inactive)
[39]
  GI50: 195 µM (inactive)
[40]
  GI50: 75.3 µM
[41]
  GI50: 172 µM (inactive)
[42]
  GI50: > 200 µM (inactive)
[43]
  GI50: 171 µM (inactive)
[44]
  GI50: 147 µM (inactive)
[45]
  GI50: 57.5 µM (inactive)
[46]
  GI50: 177 µM (inactive)
[47]
  GI50: > 185 µM (inactive)
[48]
  GI50: > 200 µM (inactive)
[49]
  GI50: > 200 µM (inactive)
[50]
  GI50: > 151 µM (inactive)
[51]
  GI50: 97.9 µM (inactive)
[52]
  GI50: > 200 µM (inactive)
[53]
  GI50: 15.5 µM (inactive)

## Cc1ccc(N2C(=O)CS/C2=C(\C#N)c2nc3ccccc3[nH]2)cc1
[1]
  GI50: > 100 µM (inactive)
[2]
  GI50: > 100 µM (inactive)
[3]
  GI50: > 100 µM (inactive)
[4]
  GI50: > 100 µM (inactive)
[5]
  GI50: > 100 µM (inactive)
[6]
  GI50: > 100 µM (inactive)
[7]
  GI50: > 100 µM (inactive)
[8]
  GI50: > 100 µM (inactive)
[9]
  GI50: > 100 µM (inactive)
[10]
  GI50: > 100 µM (inactive)
[12]
  GI50: > 100 µM (inactive)
[13]
  GI50: > 100 µM (inactive)
[14]
  GI50: > 100 µM (inactive)
[15]
  GI50: > 100 µM (inactive)
[55]
  GI50: > 100 µM (inactive)
[18]
  GI50: > 100 µM (inactive)
[56]
  GI50: > 100 µM (inactive)
[19]
  GI50: > 100 µM (inactive)
[20]
  GI50: 16.1 µM (inactive)
[21]
  GI50: > 100 µM (inactive)
[22]
  GI50: > 100 µM (inactive)
[23]
  GI50: > 100 µM (inactive)
[24]
  GI50: > 100 µM (inactive)
[25]
  GI50: > 100 µM (inactive)
[26]
  GI50: > 100 µM (inactive)
[27]
  GI50: > 100 µM (inactive)
[57]
  GI50: > 100 µM (inactive)
[58]
  GI50: > 100 µM (inactive)
[28]
  GI50: > 100 µM (inactive)
[29]
  GI50: > 100 µM (inactive)
[30]
  GI50: > 100 µM (inactive)
[31]
  GI50: > 100 µM (inactive)
[32]
  GI50: > 100 µM (inactive)
[33]
  GI50: > 100 µM (inactive)
[34]
  GI50: > 100 µM (inactive)
[35]
  GI50: > 100 µM (inactive)
[36]
  GI50: > 100 µM (inactive)
[37]
  GI50: > 100 µM (inactive)
[38]
  GI50: > 100 µM (inactive)
[59]
  GI50: > 100 µM (inactive)
[40]
  GI50: > 100 µM
[60]
  GI50: > 100 µM (inactive)
[41]
  GI50: > 100 µM (inactive)
[42]
  GI50: > 100 µM (inactive)
[43]
  GI50: > 100 µM (inactive)
[45]
  GI50: > 100 µM (inactive)
[46]
  GI50: > 100 µM (inactive)
[47]
  GI50: > 100 µM (inactive)
[49]
  GI50: > 100 µM (inactive)
[50]
  GI50: > 100 µM (inactive)
[51]
  GI50: > 100 µM (inactive)
[52]
  GI50: > 100 µM (inactive)
[53]
  GI50: > 100 µM (inactive)

## O=C(O)OC12CCCCCC1C(=O)C1CCCCC12 (centres undefined)
[1]
  GI50: 62.5 µM (inactive)
[2]
  GI50: 20.1 µM (inactive)
[3]
  GI50: 89.5 µM (inactive)
[4]
  GI50: > 100 µM (inactive)
[5]
  GI50: > 100 µM (inactive)
[6]
  GI50: > 100 µM (inactive)
[7]
  GI50: > 100 µM (inactive)
[8]
  GI50: > 100 µM (inactive)
[54]
  GI50: 39.3 µM (inactive)
[10]
  GI50: 82 µM (inactive)
[11]
  GI50: > 100 µM (inactive)
[12]
  GI50: > 100 µM (inactive)
[13]
  GI50: > 100 µM (inactive)
[16]
  GI50: > 100 µM (inactive)
[55]
  GI50: > 100 µM (inactive)
[18]
  GI50: 61.5 µM (inactive)
[56]
  GI50: > 100 µM (inactive)
[19]
  GI50: 46 µM (inactive)
[20]
  GI50: 71.3 µM (inactive)
[22]
  GI50: 42 µM (inactive)
[23]
  GI50: > 100 µM (inactive)
[24]
  GI50: > 100 µM (inactive)
[25]
  GI50: > 100 µM (inactive)
[26]
  GI50: 43.1 µM (inactive)
[27]
  GI50: > 100 µM (inactive)
[57]
  GI50: > 100 µM (inactive)
[58]
  GI50: > 100 µM (inactive)
[29]
  GI50: 82.6 µM (inactive)
[30]
  GI50: > 100 µM (inactive)
[31]
  GI50: 47 µM (inactive)
[32]
  GI50: > 100 µM (inactive)
[33]
  GI50: > 100 µM (inactive)
[35]
  GI50: > 100 µM (inactive)
[36]
  GI50: > 100 µM (inactive)
[37]
  GI50: > 100 µM (inactive)
[38]
  GI50: > 100 µM (inactive)
[59]
  GI50: 47 µM (inactive)
[39]
  GI50: > 100 µM (inactive)
[40]
  GI50: 78.2 µM
[60]
  GI50: > 100 µM (inactive)
[41]
  GI50: 57.4 µM (inactive)
[43]
  GI50: > 100 µM (inactive)
[45]
  GI50: > 100 µM (inactive)
[46]
  GI50: 77.4 µM (inactive)
[48]
  GI50: > 100 µM (inactive)
[49]
  GI50: > 100 µM (inactive)
[50]
  GI50: 82.4 µM (inactive)
[51]
  GI50: 65.8 µM (inactive)
[52]
  GI50: > 100 µM (inactive)
